Laboratory results reported in US9238020B2, “Compositions comprising enzyme-cleavable phenol-modified tapentadol prodrug” (priority 2010, dated 2016).
“Also recorded” adds a separate entry of the source. Where a name gives a salt, the structure may show the parent alone. Read-outs that look alike come from different tables or passages of the source.

How the values were obtained:
[1] = system: norepinephrine uptake into rat hypothalamus synaptosomes; assay: In vitro functional norepinephrine uptake assay; format: biochemical
Experimental: The general procedure follows the protocol described by S. Perovic and W. E. G. Muller, 1995, Arzneim-Forsch. Drug Res. 45, 1145-1148. More specifically, the assays included each of the compounds indicated in Table 13 and rat hypothalamus synaptosomes incubated with 0.2 μCi/mL [^3H] norepinephrine. For a control reaction, protriptyline was used. The reaction mixtures were incubated at 37° C. for 20 min, and the reaction product of [^3H] norepinephrine incorporation into the synaptosomes was measured by scintillation counting. IC50 values (concentration causing a half-maximal inhibition of control specific activity) were determined by non-linear regression fit using Hill plot software.

[2] = Plasma and cerebrospinal fluid penetration following IV administration to rats; format: in vivo, rat; settings: rats, IV, 2 minutes after dosing
Experimental: Compound TP-1 (which can be prepared as described in the examples herein) at a dose of 10 mg/kg, or tapentadol, at a dose of 4 mg/kg, were dissolved in saline and injected into the tail vein of 4 male Sprague Dawley rats. These doses represent approximately equimole amounts. After 2 minutes, the rats were anesthetized by carbon dioxide asphyxiation, blood samples were drawn and harvested for plasma by centrifugation at 5,400 rpm at 4° C. for 5 min, and 100 μl plasma was transferred from each sample into a fresh tube containing 2 μl of 50% formic acid. The CSF fluid was collected using a 22×1 inch gauge needle connected to polyurethane catheter type MRE-040 tubing (Braintree Scientific, Inc., Braintree, Mass.). The needle was inserted just below the nuchal crest at the area of the foramen magnum, and clear CSF fluid was collected into the catheter and transferred into a collection tube. The CSF samples were centrifuged at 5,400 rpm at 4° C. for 5 min, and 100 μl CSF fluid was transferred from each sample into a fresh tube. The plasma and CSF samples were immediately placed in dry ice and then stored in a −80° C. freezer until analysis by high performance liquid chromatography/mass spectrometry (HPLC/MS). In order to study Compound TP-1 and tapentadol plasma and CSF penetration over time, additional groups of 4 rats were administered compounds as described above and anesthetized at specified time points. Plasma and CSF were collected and analyzed as described above.
Results in Table 14 are reported, for each group of four rats, as mean concentrations of the indicated compounds in plasma or CSF. Table 14 also provides the plasma-to-CSF (plasma/CSF) partitioning coefficient, i.e., the ratio of concentration in the plasma to concentration in the CSF of the indicated compounds.

human μ-opioid receptor = human μ-opioid receptor (Homo sapiens, UniProt P35372); assay: In vitro human μ-opioid receptor agonist cellular functional assay (cAMP, CHO cells); format: cell-based; design: expressed in transfected cells; settings: CHO cells expressing human μ-opioid receptor, 37° C., 10 min
human μ-opioid receptor, sequence (P35372 whole entry): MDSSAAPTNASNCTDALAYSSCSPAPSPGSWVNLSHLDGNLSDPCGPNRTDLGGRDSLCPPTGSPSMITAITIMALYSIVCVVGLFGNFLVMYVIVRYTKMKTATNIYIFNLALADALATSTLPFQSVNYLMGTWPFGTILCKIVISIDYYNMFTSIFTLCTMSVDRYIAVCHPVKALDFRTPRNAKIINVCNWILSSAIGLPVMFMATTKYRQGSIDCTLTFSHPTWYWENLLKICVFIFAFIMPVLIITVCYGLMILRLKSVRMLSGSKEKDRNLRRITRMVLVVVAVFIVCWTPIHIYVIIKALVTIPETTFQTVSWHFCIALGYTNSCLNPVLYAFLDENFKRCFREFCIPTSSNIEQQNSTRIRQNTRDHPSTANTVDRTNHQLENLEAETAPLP
Experimental: The general procedure follows the protocol described by J.-B. Wang, et al, ibid. More specifically, the assay included as appropriate, Compound TP-1 or tapentadol and recombinant Chinese hamster ovary (CHO) cells expressing the human μ-opioid receptor on their cell surfaces. The control reaction included 1 μM DAMGO. The reaction mixtures were incubated at 37° C. for 10 min, and the reaction product was cyclic AMP (cAMP). The samples were submitted to homogeneous time resolved fluorescence (HTRF®). EC50 values (concentration producing a half-maximal specific response) were determined by non-linear regression fit using Hill plot software.

[3] = Pharmacokinetics of tapentadol release following PO administration of prodrugs or tapentadol to rats; format: in vivo, rat; settings: approximately equimole amounts
Experimental: (§1) Saline solutions of Compound TP-1 (which can be prepared as described in the examples herein) were dosed as indicated in Table 1 via oral gavage into 4 jugular vein-cannulated male Sprague Dawley rats that had been fasted for 16-18 hr prior to oral dosing. At specified time points, blood samples were drawn, harvested for plasma via centrifugation at 5,400 rpm at 4° C. for 5 min, and 100 microliters (μl) plasma transferred from each sample into a fresh tube containing 2 μl of 50% formic acid. The tubes were vortexed for 5-10 seconds, immediately placed in dry ice and then stored in a −80° C. freezer until analysis by HPLC/MS.
Saline solutions of Compounds TP-1, TP-3, TP-4, (which can be prepared as described in the examples herein) or tapentadol were dosed in approximately equimole amounts as indicated in Table 6. Dose administration, sampling and analysis procedures were as described in Example 11.
Dosing, sampling and analysis procedures were as described in Example 11.

[4] = Pharmacokinetics of prodrug and tapentadol following IV administration to rats; settings: male, Sprague Dawley, in vivo; Table 7; prodrug in rat plasma; IV 2 mg/kg; read-out: Prodrug Cmax ± sd
Experimental: Compound TP-1 (which can be prepared as described in the examples herein) was dissolved in saline and injected into the tail vein of 4 jugular vein-cannulated male Sprague Dawley rats at a dose of 2 mg/kg. At specified time points, blood samples were drawn, harvested for plasma via centrifugation at 5,400 rpm at 4° C. for 5 min, and 100 μl plasma transferred from each sample into a fresh tube containing 2 μl of 50% formic acid. The tubes were vortexed for 5-10 seconds, immediately placed in dry ice and then stored in a −80° C. freezer until analysis by high performance liquid chromatography/mass spectrometry (HPLC/MS).
Table 2 and FIG. 4 provide Compound TP-1 and tapentadol exposure results for rats administered Compound TP-1 intravenously. Results in Table 2 are reported as maximum plasma concentration (Cmax) of Compound TP-1 and tapentadol (TP), respectively, (average±standard deviation).
Compound TP-3 or Compound TP-4 (which can be prepared as described in the examples herein), or tapentadol were dissolved in saline and injected into the tail vein of four jugular vein-cannulated male Sprague Dawley rats at a dose of 2 mg/kg. Sampling and analysis procedures were as described in Example 12.

trypsin = target: T1, trypsin (Bos taurus, UniProt P00760); assay: In vitro trypsin conversion of prodrug to tapentadol and inhibition thereof by Compound 109; format: biochemical, bovine; settings: bovine, trypsin from bovine pancreas, Table 8, 4815 BAEE U trypsin/mL, read-out: Pro-drug trypsin half-life, Average ± sd (converted)
T1 construct: purchased Sigma-Aldrich T8003; host or cells: bovine pancreas
T1 sequence (P00760 24-246): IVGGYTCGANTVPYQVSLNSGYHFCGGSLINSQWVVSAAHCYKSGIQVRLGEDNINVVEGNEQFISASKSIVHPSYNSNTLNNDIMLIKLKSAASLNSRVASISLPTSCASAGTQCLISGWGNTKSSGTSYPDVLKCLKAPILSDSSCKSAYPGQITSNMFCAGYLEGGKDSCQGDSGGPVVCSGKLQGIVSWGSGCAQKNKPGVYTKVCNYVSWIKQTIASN
Experimental: (§2) Compound TP-1 was incubated with trypsin from bovine pancreas (Catalog No. T8003, Type I, ˜10,000 BAEE units/mg protein, Sigma-Aldrich). Specifically, the reactions included 0.761 nM of Compound TP-1•2HCl, 22.5 mM calcium chloride, 40 to 172 mM Tris pH 8 and 0.25% DMSO with the BAEE units of trypsin indicated in Table 4. The reactions were conducted at 37° C. for 24 hr. Samples were collected at specified time points, transferred into 0.5% formic acid in acetonitrile to stop trypsin activity and stored at less than −70° C. until analysis by LC-MS/MS.
(§3) Compound TP-1 was also incubated in the presence of 2 micromolar (μM) trypsin inhibitor Compound 109. In that case, Compound TP-1 was added 5 min after the other incubation components. Other reaction and sample treatment conditions were as described above.
(§4) Table 4 indicates the results of exposure of Compound TP-1 to trypsin in the absence or presence of trypsin inhibitor. The results are expressed as half-life of prodrug when exposed to trypsin (i.e., Prodrug trypsin half-life) in hours and rate of tapentadol (TP) formation in umol/h/BAEE U trypsin.
(§5) Compound TP-1, Compound TP-3, or Compound TP-4 (which can be prepared as described in the examples herein) were incubated in the absence or presence of Compound 109 as shown in Table 8. Incubations and analysis procedures were as described in Example 14.

[5] = target: T2, trypsin from bovine pancreas (Bos taurus, UniProt P00760); assay: as above; format: biochemical; settings: Table 8, 4815 BAEE U trypsin/mL
T2 construct: purchased Sigma-Aldrich T8003; host or cells: bovine pancreas
T2 sequence (P00760 24-246): T1 sequence (P00760 24-246)
Experimental: as §2, §3, §4, §5

[6] = Oral administration of tapentadol prodrugs with or without co-dose of trypsin inhibitor Compound 109 to rats; format: in vivo, rat; settings: by suppressing Cmax and AUC and/or delaying Tmax
Experimental: as §1, with “dosed at 39 μmol/kg (25 mg/kg) with or without a co-dose of 55 μmol/kg (30 mg/kg) Compound 109 (Catalog No. 3081, Tocris Bioscience, Ellisville, Mo., USA or Catalog No. WS38665, Waterstone Technology, Carmel, Ind., USA)” for “dosed”, “Table 3” for “Table 1”, “into” for “into 4”, “rats (4 per groups)” for “rats”, “100 μl” for “100 microliters (μl)”
Table 3 and FIG. 5 provide tapentadol exposure results for rats administered with Compound TP-1 in the absence or presence of trypsin inhibitor.
Saline solutions of Compound TP-3 or Compound TP-4 (which can be prepared as described in the examples herein) were dosed as indicated in Table 9 and according to the procedures as described in Example 13. Sampling and analysis procedures were as described in Example 13. […]

[7] = TP-1 10 mg/kg, tapentadol 4 mg/kg
[8] = pH 8, with Compound 109 (trypsin inhibitor), Compound 109 40 μM

Row | Structure (SMILES) | IC50 ([1]; [3H] norepinephrine incorporation into rat hypothalamus synaptosomes, 37° C., 20 min) [nM] | activity as a norepinephrine reuptake inhibitor ([1]; rat hypothalamus synaptosomes) | Compound conc. in CSF [2, 7] [ng/mL] | Compound conc. in Plasma [2, 7] [ng/mL] | Plasma/CSF partitioning coefficient ([2]; ratio of concentration in plasma to concentration in CSF) | agonist response in the μ-opioid receptor functional assay (human μ-opioid receptor) | tapentadol plasma concentration profile compared to administration of tapentadol [3] | Cmax [4] [ng/mL] | half-life at 0.761 nM (trypsin; [8]) [min] | half-life at 0.761 nM (trypsin; pH 8, Compound 109 0 μM) [min] | Rate of TP formation, Average ± sd ([5]; Compound 109 0 μM) [umol/h/BAEE U] | Rate of TP formation, Average ± sd ([5]; Compound 109 40 μM) [umol/h/BAEE U] | effect of co-dosed Compound 109 on release of tapentadol from prodrug [6]
1 | CC[C@@H](c1cccc(O)c1)[C@@H](C)CN(C)C [Tapentadol, 3-[(1R,2R)-3-(dimethylamino)-1-ethyl-2-methylpropyl]phenol hydrochloride] | 390 | has activity as a norepinephrine reuptake inhibitor | 179 | 1870 | 10.4 | no response up to a concentration of 10 μM |  |  |  |  |  |  | 
2 | CC[C@@H](c1cccc(OC(=O)N(C)CC(C)(C)CNC(=O)[C@H](CCCNC(=N)N)NC(=O)CC(=O)O)c1)[C@@H](C)CN(C)C [Compound TP-4, N—[(S)-1-(3-{[3-((1R,2R)-3-Dimethylamino-1-ethyl-2-methyl-propyl)-phenoxycarbonyl]-methyl-amino}-2,2-dimethyl-propylcarbamoyl)-4-guanidino-butyl]-malonamic acid] |  |  |  |  |  |  | suppressed Cmax and delayed Tmax | 988 ± 89 | 106 ± 13.2 | 4.94 ± 0.168 | 0.0753 ± 0.0007 | 0.028 ± 0.0004 | 
3 | CC[C@@H](c1cccc(OC(=O)N(C)CCNC(=O)[C@H](CCCCN)NC(=O)CC(=O)O)c1)[C@@H](C)CN(C)C [Compound TP-3, N—[(S)-5-Amino-1-(2-{[3-((1R,2R)-3-dimethylamino-1-ethyl-2-methyl-propyl)-phenoxycarbonyl]-methyl-amino}-ethylcarbamoyl)-pentyl]-malonamic acid] |  |  |  |  |  |  | suppressed Cmax and delayed Tmax | 1460 ± 99 | 732 ± 19.8 | 16.26 ± 0.138 | 0.0258 ± 0.0024 | 0.0048 ± 0.0000 | 
4 | N=C(N)c1ccc2cc(OC(=O)c3ccc(N=C(N)N)cc3)ccc2c1 [Compound 109, 6-carbamimidoylnaphthalen-2-yl 4-(diaminomethyleneamino)benzoate] |  |  |  |  |  |  |  |  |  |  |  |  | attenuates Compound TP-1's ability to release tapentadol; also recorded: attenuates the abilities of both Compound TP-3 and Compound TP-4 to release tapentadol; also recorded: can attenuate the abilities of both Compound TP-1 and Compound TP-3 to release tapentadol
